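Protocol summary: plate cells (96-well), add compound at 5 concentrations, incubate 48 h, interpolate endpoints linearly. TGI: concentration producing complete growth inhibition.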
Key:
Experiment in all cases: NCI anticancer screen, dose series, 48 h
SF-295 CNS = system: SF-295 CNS
ACHN renal = system: ACHN renal
DMS 114 small cell lung = system: DMS 114 small cell lung
SK-MEL-5 melanoma = system: SK-MEL-5 melanoma
NCI-H23 lung = system: NCI-H23 lung
NCI-H460 lung = system: NCI-H460 lung
UACC-257 melanoma = system: UACC-257 melanoma
SNB-78 CNS = system: SNB-78 CNS
SN12C renal = system: SN12C renal
KM12 colon = system: KM12 colon
OVCAR-3 ovarian = system: OVCAR-3 ovarian
COLO 205 colon = system: COLO 205 colon
NCI-H522 lung = system: NCI-H522 lung
RXF-631 renal = system: RXF-631 renal
A498 renal = system: A498 renal
RPMI-8226 leukemia = system: RPMI-8226 leukemia
KM20L2 colon = system: KM20L2 colon
MOLT-4 leukemia = system: MOLT-4 leukemia
UO-31 renal = system: UO-31 renal
MALME-3M melanoma = system: MALME-3M melanoma
SK-MEL-28 melanoma = system: SK-MEL-28 melanoma
SNB-19 CNS = system: SNB-19 CNS
HCC-2998 colon = system: HCC-2998 colon
A549 NSCLC = system: A549 NSCLC
OVCAR-5 ovarian = system: OVCAR-5 ovarian
OVCAR-8 ovarian = system: OVCAR-8 ovarian
EKVX NSCLC = system: EKVX NSCLC
HOP-92 NSCLC = system: HOP-92 NSCLC
HCT-116 colon = system: HCT-116 colon
HCT-15 colon = system: HCT-15 colon
SF-268 CNS = system: SF-268 CNS
SF-539 CNS = system: SF-539 CNS
XF 498 CNS = system: XF 498 CNS
SK-MEL-2 melanoma = system: SK-MEL-2 melanoma
RXF 393 renal = system: RXF 393 renal
SNB-75 CNS = system: SNB-75 CNS
IGROV1 ovarian = system: IGROV1 ovarian
K-562 leukemia = system: K-562 leukemia
DLD-1 colon = system: DLD-1 colon
M14 melanoma = system: M14 melanoma
SK-OV-3 ovarian = system: SK-OV-3 ovarian
CCRF-CEM leukemia = system: CCRF-CEM leukemia
HT29 colon = system: HT29 colon
SR leukemia = system: SR leukemia
DMS 273 small cell lung = system: DMS 273 small cell lung
LOX IMVI melanoma = system: LOX IMVI melanoma
UACC-62 melanoma = system: UACC-62 melanoma
HOP-18 NSCLC = system: HOP-18 NSCLC
SW-620 colon = system: SW-620 colon
U251 CNS = system: U251 CNS
LXFL 529 NSCLC = system: LXFL 529 NSCLC
HL-60(TB) leukemia = system: HL-60(TB) leukemia
TK-10 renal = system: TK-10 renal
CAKI-1 renal = system: CAKI-1 renal
786-0 renal = system: 786-0 renal
HOP-62 NSCLC = system: HOP-62 NSCLC
M19-MEL melanoma = system: M19-MEL melanoma
OVCAR-4 ovarian = system: OVCAR-4 ovarian
NCI-H226 lung = system: NCI-H226 lung

`C1=CCN(c2ccccc2)CC1` showed a TGI (SF-295 CNS) greater than 100 µM, a TGI (ACHN renal) of 56.8 µM and a TGI (DMS 114 small cell lung) greater than 100 µM. For the same molecule, the TGI (SK-MEL-5 melanoma) was greater than 100 µM, the TGI (NCI-H23 lung) was greater than 100 µM and the TGI (NCI-H460 lung) was greater than 100 µM. The TGI (UACC-257 melanoma) was greater than 100 µM, the TGI (SNB-78 CNS) was greater than 100 µM and the TGI (SN12C renal) was 87 µM. It also gave a TGI (KM12 colon) greater than 100 µM, a TGI (OVCAR-3 ovarian) of 61.2 µM and a TGI (COLO 205 colon) greater than 100 µM. For the same molecule, the TGI (NCI-H522 lung) was 30.4 µM, the TGI (RXF-631 renal) was greater than 100 µM and the TGI (A498 renal) was greater than 100 µM. The TGI (RPMI-8226 leukemia) was greater than 100 µM, the TGI (KM20L2 colon) was greater than 100 µM and the TGI (MOLT-4 leukemia) was greater than 100 µM. It also gave a TGI (UO-31 renal) greater than 100 µM, a TGI (MALME-3M melanoma) of 46.8 µM and a TGI (SK-MEL-28 melanoma) of 73.9 µM. The TGI (SNB-19 CNS) was greater than 100 µM, the TGI (HCC-2998 colon) was greater than 100 µM and the TGI (A549 NSCLC) was greater than 100 µM. It also gave a TGI (OVCAR-5 ovarian) greater than 100 µM, a TGI (OVCAR-8 ovarian) of 81.2 µM and a TGI (EKVX NSCLC) greater than 100 µM. For the same molecule, the TGI (HOP-92 NSCLC) was 61.6 µM, the TGI (HCT-116 colon) was greater than 100 µM and the TGI (HCT-15 colon) was 47.1 µM. It also gave a TGI (SF-268 CNS) greater than 100 µM, a TGI (SF-539 CNS) greater than 100 µM and a TGI (XF 498 CNS) of 40.6 µM. The TGI (SK-MEL-2 melanoma) was greater than 100 µM, the TGI (RXF 393 renal) was 35.7 µM and the TGI (SNB-75 CNS) was greater than 100 µM. It also gave a TGI (IGROV1 ovarian) of 96.3 µM, a TGI (K-562 leukemia) greater than 100 µM and a TGI (DLD-1 colon) greater than 100 µM. It also gave a TGI (M14 melanoma) of 44.8 µM, a TGI (SK-OV-3 ovarian) greater than 100 µM and a TGI (CCRF-CEM leukemia) greater than 100 µM. The TGI (HT29 colon) was 87.3 µM, the TGI (SR leukemia) was greater than 100 µM and the TGI (DMS 273 small cell lung) was greater than 100 µM. It also gave a TGI (LOX IMVI melanoma) greater than 100 µM, a TGI (UACC-62 melanoma) greater than 100 µM and a TGI (HOP-18 NSCLC) greater than 100 µM. It also gave a TGI (SW-620 colon) of 47.3 µM, a TGI (U251 CNS) greater than 100 µM and a TGI (LXFL 529 NSCLC) of 43.3 µM. The TGI (HL-60(TB) leukemia) was 90.1 µM and the TGI (TK-10 renal) was greater than 100 µM.
`N=C(c1ccccc1)N1CCCCC1` showed a TGI (SF-295 CNS) greater than 100 µM, a TGI (DMS 114 small cell lung) greater than 100 µM and a TGI (CAKI-1 renal) greater than 100 µM. It also gave a TGI (786-0 renal) greater than 100 µM, a TGI (NCI-H23 lung) greater than 100 µM and a TGI (NCI-H460 lung) greater than 100 µM. The TGI (UACC-257 melanoma) was greater than 100 µM, the TGI (SNB-78 CNS) was greater than 100 µM and the TGI (SN12C renal) was greater than 100 µM. It also gave a TGI (KM12 colon) greater than 100 µM, a TGI (COLO 205 colon) greater than 100 µM and a TGI (NCI-H522 lung) greater than 100 µM. For the same molecule, the TGI (HOP-62 NSCLC) was greater than 100 µM, the TGI (KM20L2 colon) was greater than 100 µM and the TGI (UO-31 renal) was greater than 100 µM. For the same molecule, the TGI (MALME-3M melanoma) was greater than 100 µM, the TGI (SK-MEL-28 melanoma) was greater than 100 µM and the TGI (M19-MEL melanoma) was greater than 100 µM. For the same molecule, the TGI (SNB-19 CNS) was greater than 100 µM, the TGI (HCC-2998 colon) was greater than 100 µM and the TGI (A549 NSCLC) was greater than 100 µM. For the same molecule, the TGI (OVCAR-5 ovarian) was greater than 100 µM, the TGI (OVCAR-8 ovarian) was greater than 100 µM and the TGI (EKVX NSCLC) was greater than 100 µM. For the same molecule, the TGI (HCT-116 colon) was greater than 100 µM, the TGI (SF-268 CNS) was greater than 100 µM and the TGI (OVCAR-4 ovarian) was greater than 100 µM. It also gave a TGI (SF-539 CNS) greater than 100 µM, a TGI (SK-MEL-2 melanoma) greater than 100 µM and a TGI (RXF 393 renal) greater than 100 µM. It also gave a TGI (SNB-75 CNS) greater than 100 µM, a TGI (DLD-1 colon) greater than 100 µM and a TGI (M14 melanoma) greater than 100 µM. The TGI (HT29 colon) was greater than 100 µM, the TGI (SR leukemia) was greater than 100 µM and the TGI (DMS 273 small cell lung) was greater than 100 µM. The TGI (LOX IMVI melanoma) was greater than 100 µM, the TGI (HOP-18 NSCLC) was greater than 100 µM and the TGI (SW-620 colon) was greater than 100 µM. The TGI (NCI-H226 lung) was greater than 100 µM, the TGI (U251 CNS) was greater than 100 µM and the TGI (LXFL 529 NSCLC) was greater than 100 µM. The TGI (HL-60(TB) leukemia) was greater than 100 µM and the TGI (TK-10 renal) was greater than 100 µM.

From PubChem BioAssay (NCI)
